Measurements taken from patent publication US12702643B2, “Ion-exchange composition with water-soluble mucoadhesive polymers” (Fertin Pharma A/S, priority 2019, dated 2026).

Details: increase of nicotine concentration from 100 microgram/mL to 14,000 microgram/mL

CN1CCCC1c1cccnc1 (stereo not shown) [nicotine]
Permeability of nicotine across the buccal mucosa: decrease of about a factor of two
